These results are taken from patent publication US7691387B2, “Cinnamomi and poria composition, method to prepare same and uses thereof” (Jiangsu Kanion Pharmaceutical Co., Ltd, priority 2000, dated 2010).

Each structure is given as a SMILES string. Read-outs that look alike come from different tables or passages of the source.

Data set [1] deals with twisting responses of mice induced by acetic acid. The experiment in a line: Acetic acid twisting experiment. The settings on record: positive control, 0.2 g/kg. It counts as in vivo. Here is the method:
Randomly divide the animals into 5 groups. […] After the drug has been administered on the third day, celio-inject 0.5% acetic acid to the mice in groups. Observe and record the times of twisting of mice within 30 minutes. [formula]

The test system of data set [2] is extra-corporeal platelet aggregation of rabbits. Nature of the data set: Extra-corporeal platelet aggregation of rabbit (ADP). It counts as cell-based. As to conditions: 0.3 Mg/ml.
Data set [3] concerns platelet aggregation of rats. Nature of the data set: Platelet aggregation experiments of rats. In kind it is in vivo, Wister rats. The settings on record: 0.1 g/kg once. Here is the method: The drug concentration is 0.5 mg/ml. […] The drug concentration is 1 g/ml. […] The drug concentration is 1 g/ml. Experimental process: […] Half an hour after administering the drug on the fifth day, use ether to anaesthetize the rats. […] Administer a 0.1 g/kg aspirin once to the positive control group. Prepare platelet plasma according to the method explained previously. Do the aggregation experiments, and record the conditions of every group.

The test system of another data set is ear swelling of mice. Nature of the data set: Croton oil ear swelling of mice. It counts as in vivo, Kunming mice. The settings on record: 0.025 g/Kg, three days. Here is the method:
Preparation of drug: Put 12.5 g of extract of CCP in 100 ml of normal saline, and mix adequately. The drug concentration is […]. Put 25 g of extract of CCP in 100 ml of normal saline, and mix adequately. The drug concentration is 1 g/ml. Put 50 g of extract of CCP in 100 ml of normal saline, and mix adequately. The drug concentration is 2 g/ml. Put 12.5 g of the Bolus of Cinnamomi & Poria in 100 ml of normal saline, and mix adequately. The drug concentration is […]. Put 25 g of extract in 100 ml of normal saline, and mix adequately. The drug concentration is 1 g/ml. Put 50 g of extract in 100 ml of normal saline, and mix adequately. The drug concentration is 2g/ml. Put 0.1 g of Hydrocortisone in 100 ml of normal saline. The drug concentration is 1 mg/ml. Administer all three preparations (a total of seven different solutions) with 10 ml/kg.
Experimental method: According to their weight, randomly divide fifty male mice into eight groups. Administer different doses of the seven solutions mentioned above for three days and for the control group administer the normal saline of the same volume. After three days of administering the drug, besmear […] croton oil on both sides of every mouse's left ear (compare with right ear). […]

Data set [4] deals with blood pressure of anaesthetized dog. As to conditions: mainline 80-120 mg/kg; cited from earlier work.
In the next data set the test system is coliform. As to conditions: cited from earlier work.
For data set [5] the following is noted: cited from earlier work.
The test system of a further data set is tinea germ between toes. The settings on record: cited from earlier work.
For the next data set, the system named is bacillus subtilis. As to conditions: cited from earlier work.
Data set [6] concerns rheumatism, stomachache, other pains, eczema, dermatitis. The settings on record: cited from earlier work.
A further data set deals with streptococcus faecalis. The settings on record: cited from earlier work.
The test system of the next data set is golden staphylococcus. As to conditions: cited from earlier work.

On to `CC(=O)Oc1ccccc1C(=O)O` [Aspirin, Acetylsalicylic acid], for which the “controlling rate of twisting times” value in [1] is reported as 61.08%. For the same compound, in [2], the “Aggregation(%)” value is on record as 32.94 ± 1.68 %. The Aggregation ratio in data set [3] is recorded as 26.58 ± 10.58.
In the data set with ear swelling of mice, `C[C@]12CCC(=O)C=C1CC[C@@H]1[C@@H]2[C@@H](O)C[C@@]2(C)[C@H]1CC[C@]2(O)C(=O)CO` [Hydrocortisone] returned an Average swelling degree of 4.68 ± 3.43.
Consider `COc1ccc(C(C)=O)c(O)c1` [Paeonol, Ethanone, 1-(2-hydroxy-4-methoxyphenyl)-], for which, in data set [4], the “duration of reduced pressure” value was 10 to 12 min. For the same compound, in data set [4], the reduce pressure is 41-61%. For the same compound, the controlling consistency was 200 µg/mL in the data set on coliform; 250 µg/mL in the data set with tinea germ between toes; 200 µg/mL with bacillus subtilis; 500 µg/mL in the data set with streptococcus faecalis; 500 µg/mL in the data set on golden staphylococcus. Besides, the solubility in water result in [5] is listed as “resolve a little in water”. Moreover, the validity rate in data set [6] (261 cases with rheumatoid arthritis, lumbago, bellyache, postoperative & cancer pain) is on record as 92%; in data set [6] (inject 50˜100 mg, rheumatism, other pains, eczema, dermatitis), 83%.
